The values that follow come from patent publication US5362364A, “Process for producing alkaline paper” (Mitsubishi Paper Mills Limited, priority 1990, dated 1994).

A short description of data set [1]: Stockigt sizing degree of paper according to JIS P 8122. It counts as physicochemical. To be noted: compared with Sample 3-1 and 4-1 (DMTT) or Sample 7-1 and 8-1 (bromonitroalcohol). As to the method: The paper stock immediately after prepared was used to prepare a hand sheet having a basis weight of 60 g/m^2. The resulting sheet was dried at 80° C. for 5 min. in a hot air drier. The sheet thus prepared was called "Sample 1-1".
In the above, the sizing degree was measured by Testing method for Stockigt sizing degree of paper according to JIS P 8122.
The 0.1% addition of the alkylketene dimer should develop the sizing degree of 20-25 sec. unless other chemicals used together interfere with it.
The paper stock immediately after prepared was used to prepare a handmade sheet having a basis weight of 60 g/m^2. The resulting sheet was dried at 80° C. for 5 min. in a hot air drier. The sheet thus prepared was called "Sample 5-1".
(§1) Measurement of the sizing degree, evaluation of the mutagenicity, and ninhydrin reaction in Table 3 and Table 4 were conducted in the same manner as in Table 1 and Table 2.

Data set [2] relates to Salmonella typyhimurium TA 100. The data set can be described thus: mutagenicity test (reverse mutation test) on hand sheet extract, Ministry of Labor Order No. 261. The settings on record: compared with Sample 3-1 and 4-1 (DMTT) or Sample 7-1 and 8-1 (bromonitroalcohol). It counts as cell-based.
Protocol: That is, each hand sheet was subjected to extraction using a mixture of benzene/ethanol (9/1, by volume) at 80° C. for three hours, and the resulting extractant was subjected to a reverse mutation test using Salmonella typyhimurium TA 100 without following a metabolism activating method.
When the number of reverse mutation colony increased to twice or more that in the case of dimethyl sulfoxide used as a control solvent, it was determined "positive".
Data set [3] deals with slime. The data set can be described thus: ninhydrin reaction of the paper stock filtrate (slime formation). To be noted: for slime inhibiting effect: slimecide added in advance to cationic starch, compared with conventional direct addition. As to the method:
A part of the paper stock as obtained above was stored at 32° C. for 7 days and then, filtered by means of a wire screen. The filtrate was subjected to ninhydrin reaction and the effectiveness of the slimecide controlling agent was evaluated based on the result of the ninhydrin reaction. The filtrate was called "Sample 1-2".
Ninhydrin reaction was effected by adding 0.5 ml of a 1% aqueous solution of nonhydrin to 10 ml of the filtrate, and the result was evaluated depending on the degree of color change of the resulting solution to reddish purple.
A part of the paper stock as obtained above was stored at 32° C. for 7 days and then, filtered by means of a wire net. The filtrate was subjected to ninhydrin reaction and the effectiveness of the slime controlling agent was evaluated based on the result of the ninhydrin reaction. The filtrate was called "Sample 5-2".
as §1

`O=[N+]([O-])C(Br)(CO)CO` [2-bromo-2-nitropropane-1,3-diol]: the effect on sizing result in data set [1] is listed as “nor adversely affects the sizing property”. For the same compound, the safety for man result in data set [2] was “neither harmful to man”. In addition, the “amount of slimecide relative to amount added in conventional manner” value in data set [3] (slime inhibition with slimecide added in advance to cationic starch, based on paper stock solid matter) is “about 1/10”. The slime inhibiting effect result in data set [3] is on record as “slime formation can be effectively inhibited”.
On to `CN1CSC(=S)N(C)C1` [DMTT, 3,5-dimethyltetrahydro-1,3,5-2H-thiadiazine-2-thione], for which the effect on sizing result in data set [1] was “minimal adverse effect on sizing”. For the same compound, the slime inhibiting effect result in data set [3] is “excellent slime inhibiting effect”.
